Results from patent US20200129435A1, “COMPOSITION FOR DELIVERING A THERAPEUTIC AGENT AND METHODS FOR MAKING AND USING” (UVic Industry Partnerships Inc., priority 2018, published 2020).
Read-outs that look alike come from different tables or passages of the source.

Legend:
U87 glioblastoma cells = assay: PrestoBlue cell viability assay (Example 2); type: cell-based; details: Homo sapiens, 96-hours treatment, read-out: reduction of cell viability
Method: PrestoBlue™ cell viability assay was used to determine the effect of TMZ on the viability and proliferation of U87 glioblastoma cells. In this assay, metabolically active cells reduce a non-fluorescent compound (resazurin) in the PrestoBlue™ solution into a fluorescent molecule (resorufin).
In this study, U87 glioblastoma cells were seeded in a 96 well plate at 5,000 cells per well density, and a 24 well plate at 25,000 cells per well density to evaluate the cytotoxicity of free TMZ and one embodiment of the disclosed composition, respectively. The wells were then incubated for 24 hours at 37° C. with 95% relative humidity and 5% CO2. To determine the effect of the free TMZ, U87 glioblastoma cells were treated with different concentrations of the drug from 100 μM to 1000 μM in the cell medium. To study the effect of the disclosed hydrogel composition, the cells were treated with both microsphere-loaded (TMZ concentration of 100 μM) and blank meshes. Cells were incubated for 24, 48, 72, and 96 hours without changing the cell culture medium. […] Subsequently, the cell culture medium containing presto blue was transferred into a new well plate and the fluorescent intensity of each well was measured at excitation wavelength of 535 nm and emission wavelength of 615 nm by using a plate reader. Cell viability was then calculated by using equation 4 (Eq. 4): […]

[1] = oral administration is the main route; cited from earlier work
U-87 MG cells [2] = assay: PrestoBlue cell viability assay (Example 1); type: cell-based, human
Method: Cell viability was assessed by PrestoBlue™ (Invitrogen/Life Technologies™, Carlsbad, USA, Catalog No.: A13262) assay. In this experiment, cells were first seeded in 6-well plates in a density of 6×10^4 cells/well. Viability tests were conducted at 48, 72, and 96 hours by replacing the cell media with 10% PrestoBlu™ reagent and incubating at 37° C. for 1 hour. Following, 100 μl of the incubated 10% PrestoBlue™ reagent from each well of the assay plates was transferred to a new well in a 96-well plate and read by a microplate reader (Infinite M200 Pro). Finally, viability was calculated by the following equation: […]

U-87 MG cells [3] = assay: Apoptosis assay, propidium iodide flow cytometry, sub-G1 population; type: cell-based, human; details: free ATRA 40 μM; 48 hours
Method: To determine the level of apoptosis induced by ATRA apoptosis levels were detected using propidium iodide (PI) lysis buffer and flow cytometry. […] 1% sodium citrate (Bio Basic, Markham, Canada, Catalog No.: CB0035) and 0.1% Triton X-100 (Sigma-Aldrich, Sigma-Aldrich, St. Louis, USA Catalog No.: X100) were added to distilled water to prepare an initial solution for PI lysis buffer. The pH of the solution was adjusted to 7.4 and stored.
Prior to the apoptosis assay, RNase (Sigma-Aldrich, St. Louis, USA Catalog No.: R6513) and propidium iodide (Sigma-Aldrich, St. Louis, USA Catalog No.: P4864) was added to the initial solution to reach concentrations of 0.5 mg/ml and 40 μg/ml for RNase and propidium iodide, respectively. The cell media was collected and the cells were detached with EDTA (Caledon Laboratory Chemicals, Georgetown, Canada, Catalog No.: 3460-1-65) solution. The cell suspension was centrifuged at 4° C. in 1500 g for 5 minutes. Following, the cell pellets were washed twice with 500 μl of DPBS (Gibco™ by Life Technologies™, Carlsbad, USA, Catalog No.: 14190250) 4° C. The pellets were then lysed and stained with 250 μl of PI lysis buffer, and kept at room temperature in the dark for 15-30 minutes. […] Finally, the red channel was read on the flow cytometer to determine the sub-G1 population.

U-87 MG cells [4] = assay: Cell count assay (hemocytometer, Trypan Blue); type: cell-based, human; details: 40 μM ATRA in cell medium
Method: U-87 MG cells were provided by ATCC® and cultured in Dulbecco's Modified Eagle Medium (DMEM), high glucose (Gibco™ by Life Technologies™, Carlsbad, USA, Catalog No.: 11965084) with 10% fetal bovine serum (Gibco™ by Life Technologies™, Carlsbad, USA, Catalog No.: 12483020), 1% penicillin-streptomycin (Invitrogen/Life Technologies™, Carlsbad, USA, Catalog No.: 15140122), and 4 μg/ml puromycin at 37° C. in an atmosphere of 5% CO2. Cells were counted by hemocytometer (Bright-Line™) with two-time dilution in Trypan Blue solution (Sigma-Aldrich, St Louis, USA, Catalog No.:93595).

U-87 MG cells [5] = assay: Bright field microscopy of treated cells; type: cell-based, human; details: free ATRA = 40 μM

SMILES | cytotoxicity at 100 µM (U87 glioblastoma cells; free TMZ 100 μM) [%] | cytotoxicity at 1000 µM (U87 glioblastoma cells; free TMZ 1000 μM) [%] | half-life [1] | cell viability compared to control (U-87 MG cells [2]; 20 μM in cell medium, 96 hours) [%] | cell viability compared to control (U-87 MG cells [2]; 40 μM in cell medium, 96 hours) [%] | viability at 20 µM (U-87 MG cells [2]; Homo sapiens, U-87 MG, 48 h, 20 μM in cell medium, 48 hours, read-out: cell viability compared to control) [%] | viability at 20 µM (U-87 MG cells [2]; Homo sapiens, U-87 MG, 96 h, 20 μM in cell medium, 96 hours, read-out: cell viability compared to control) [%] | viability at 40 µM (U-87 MG cells [2]; Homo sapiens, U-87 MG, 96 h, 40 μM in cell medium, 96 hours, read-out: cell viability compared to control) [%] | apoptosis (sub-G1 population) (U-87 MG cells [3]) | cell population relative to control condition (U-87 MG cells [4]; 48 hours) | cell population relative to control condition (U-87 MG cells [4]; 96 hours) | cell morphology (U-87 MG cells [5])
Cn1nnc2c(C(N)=O)ncn2c1=O [TMZ, Temozolomide] | 78 | 95 | – | – | – | – | – | – | – | – | – | –
CC1=C(/C=C/C(C)=C/C=C/C(C)=C/C(=O)O)C(C)(C)CCC1 [ATRA, all-trans retinoic acid] | – | – | about 1.5 hours | 77 | 72 | 88.4 | 77.3 | 72.4 | about 2% | 86.0%±7.2% | 64.4%±8.6% | cell shrinkage
